Columns and labels:
Carbonic anhydrase 9 = Carbonic anhydrase 9 (Homo sapiens, UniProt Q16790)
Description: Inhibition of recombinant human carbonic anhydrase 9 expressed in Escherichia coli L21-GOLD (DE3) incubated for 10 mins prior to testing by stopped-flow CO2 hydration assay

Carbonic anhydrase 12 = Carbonic anhydrase 12 (Homo sapiens, UniProt O43570)
Description: Inhibition of recombinant human carbonic anhydrase 12 expressed in Escherichia coli L21-GOLD (DE3) incubated for 10 mins prior to testing by stopped-flow CO2 hydration assay

Carbonic anhydrase 1 = Carbonic anhydrase 1 (Homo sapiens, UniProt P00915)
Sequence of Carbonic anhydrase 1 (P00915 whole entry): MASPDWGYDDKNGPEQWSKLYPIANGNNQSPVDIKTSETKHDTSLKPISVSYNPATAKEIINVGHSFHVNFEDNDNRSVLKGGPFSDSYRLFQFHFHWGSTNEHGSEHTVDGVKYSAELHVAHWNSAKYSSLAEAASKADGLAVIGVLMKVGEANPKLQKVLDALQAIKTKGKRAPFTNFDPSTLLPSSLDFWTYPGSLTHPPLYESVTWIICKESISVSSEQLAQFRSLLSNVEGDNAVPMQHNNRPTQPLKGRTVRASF
Description: Inhibition of recombinant human carbonic anhydrase 1 expressed in Escherichia coli L21-GOLD (DE3) incubated for 10 mins prior to testing by stopped-flow CO2 hydration assay

Sequence of Carbonic anhydrase 12 (O43570 whole entry): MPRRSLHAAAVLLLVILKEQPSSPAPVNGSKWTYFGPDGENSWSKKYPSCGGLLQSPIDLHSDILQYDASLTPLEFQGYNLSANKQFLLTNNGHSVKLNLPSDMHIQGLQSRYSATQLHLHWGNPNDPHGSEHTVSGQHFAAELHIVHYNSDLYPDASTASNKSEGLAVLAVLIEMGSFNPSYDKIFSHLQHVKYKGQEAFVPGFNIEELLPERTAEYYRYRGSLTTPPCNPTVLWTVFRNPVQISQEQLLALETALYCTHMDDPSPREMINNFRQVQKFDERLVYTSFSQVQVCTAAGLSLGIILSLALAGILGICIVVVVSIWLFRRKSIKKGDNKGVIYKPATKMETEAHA

For `O=C1NS(=O)(=O)c2ccccc21` [SACCHARIN], which Ki (Carbonic anhydrase 9) is on record?
Its Ki is 100 nM.

And the Ki (Carbonic anhydrase 12)?
The Ki was 650 nM.

And the Ki (Carbonic anhydrase 1)?
The Ki was greater than 20000 nM.

— ChEMBL document CHEMBL4024785 (J Med Chem, 2018)
